Test results published in patent publication US20030068275A1, “Coordination complexes for detecting analytes, and methods of making and using the same” (priority 2001, published 2003).

Test: Detection of nitric oxide with the [Co2(O2CAr^Tol)4(dansylpiperazine)2] fluorescent sensor
Conditions: for peak emission intensity wavelength: CH2Cl2, excited at 350 nm
Method: Detection of Nitric Oxide with the [Co2(O2CAr^Tol)4(dansylpiperazine)2Fluorescent Sensor. It is believed that in solution [Co2(O2CAr^Tol)4(dansylpiperazine)2] is in equilibrium between two species: the [Co2(μ-O2CAr^Tol)4(dansylpiperazine)2] (paddle-wheel) isomer and the [Co2(μ-O2CAr^Tol)2(O2CAr^Tol)2(dansylpiperazine)2] (windmill) isomer. […] The ability of the [Co2(O2CAr^Tol)4(dansylpiperazine)2] system to act as a nitric oxide sensor was tested. […] The exact reaction that occurs in this experiment has not yet been determined.
The fluorescence response of [Co2(O2CAr^Tol)4(dansylpiperazine)2] after exposure to excess NO in CH2Cl2 was measured spectroscopically. Solutions were excited at 350 nm and the emission spectrum recorded. The peak emission intensity is at 503 nm before exposure NO, but shifts to 513 nm after exposure to NO. Emission spectra, shown in FIG. 5, were recorded at 0, 1, 5, 10, 20, 30, 40, 50, and 60 minutes post exposure to NO. A fluorescence increase of 9.6-fold was observed after 60 minutes.

## [Co2(μ-O2CAr^Tol)4(dansylpiperazine)2] [[Co2(O2CAr^Tol)4(dansylpiperazine)2]]
CH2Cl2, excess NO, excited at 350 nm, after 60 minutes
  fluorescence increase: 9.6 fold
After exposure to excess NO
  peak emission intensity wavelength: 513 nm
Before exposure to NO
  peak emission intensity wavelength: 503 nm
Solution in dichloromethane, before NO (FIG. 4b, left)
  fluorescence in the absence of nitric oxide: little to no fluorescence
Solution in dichloromethane, excess NO (FIG. 4b, right)
  fluorescence change after exposure to nitric oxide: increase in fluorescence
